Data set [1] in a line: Percentase inhibition on glucosidase I of glycoprotein trimming from pig liver at 1 mM concentration. It counts as functional. To be noted: Sus scrofa.
Data set [2] is described as follows: pKa value was determined. The data set is classed as physicochemical.
For a further data set, the species on record is Sus scrofa. Description: Percentase inhibition on glucosidase I of glycoprotein trimming from pig liver at 2.5 mM concentration; NI=No inhibition. The data set is classed as functional, tissue-based.
A short description of data set [3]: Competitive Inhibition constant on almonds beta Glucosidase; NI=No inhibition. To be noted: Prunus dulcis.
A short description of data set [4]: Competitive Inhibition constant on jack bean mannosidase; NI=No inhibition. The settings on record: Canavalia ensiformis.

Calls of active or inactive are those of the source. The rule behind the calls is not given here.

A word on the inhibition: it is the relative decrease from the control value, in per cent. A word on the pKa: it is the negative logarithm of the acid dissociation constant. Higher therefore signals a group that holds its proton tightly.

The compound `CCC(O)[C@H]1NC[C@H](O)[C@@H](O)[C@@H]1O` (some centres undefined) registered an inhibition at 1000 µM in data set [1] of 50%. For the same compound, the pKa in data set [2] is ~6.5. Besides, the inhibition entry in the data set filed under Sus scrofa was “inactive”.

On to `CCO[C@@H]1CN[C@H](CO)[C@@H](O)[C@@H]1O`, for which the outcome in data set [3] and in data set [4] was inactive.

As to `OC1CCN2C[C@H](O)[C@@H](O)[C@H](O)C12` (some centres undefined), in data set [2], the pKa is ~6.5. Regarding `OC[C@H]1NC[C@@H](F)[C@@H](O)[C@@H]1O`, the result in data set [3] and in data set [4] was inactive. Take `OC[C@H]1NC[C@H](O)[C@@H](O)[C@@H]1O` [DUVOGLUSTAT]: in data set [2], the pKa is ~6.5.
